Laboratory results as given in patent US20230096766A1, “AMINO ACID HAVING FUNCTIONAL GROUP CAPABLE OF INTERMOLECULAR HYDROGEN BONDING, PEPTIDE COMPOUND CONTAINING SAME AND METHOD FOR PRODUCTION THEREOF” (Chugai Seiyaku Kabushiki Kaisha, priority 2018, published 2023).
*1 amine or outer side, *2 acyl side, *3 side chain or, on linkers, in order; H or OH if unused. Where a SMILES comes first, the peptide text is derived from it. Bridges are numbered along the chain shown (N, C = ends). [ ]: non-standard residue; d: D form. The star is where a group is joined. ξ: configuration not given here. NMeHph(3-OMe-4-CONHMe) = CNC(=O)c1ccc(CC[C@H](NC)C(=O)O)cc1OC; X14 = CC(C)[C@H](CC(=O)[C@H](Cc1ccccc1)N(C)[*:1])C(=O)[*:2]; hPhe(3-OMe,4-CONHMe) = CNC(=O)c1ccc(CC[C@H](N)C(=O)O)cc1OC; NMeAbu(4-morpholino) = CN[C@@H](CCN1CCOCC1)C(=O)O; X1 = COc1cc(C[C@H](N[*:1])C(=O)[*:2])ccc1C(=O)NO; NMePhe(3-Cl) = CN[C@@H](Cc1cccc(Cl)c1)C(=O)O; ξGln(SO2Me) = CS(=O)(=O)NC(=O)CCC(N)C(=O)O; NMeW = CN[C@@H](Cc1c[nH]c2ccccc12)C(=O)O; NMehPhe = CN[C@@H](CCc1ccccc1)C(=O)O; X7 = O=C(C[C@H](COCCO)N[*:1])[*:2]; NMeF = CN[C@@H](Cc1ccccc1)C(=O)O; NMeGABA = CN(CCCC(=O)[*:2])[*:1]; NMeI = CC[C@H](C)[C@H](NC)C(=O)O; CH2CH(OH)CF3 = OC(C*)C(F)(F)F; NMeL = CN[C@@H](CC(C)C)C(=O)O; Thr(3ξ) = CC(O)[C@H](N)C(=O)O; Propyl(2R-OH) = C[C@@H](O)C*; NMeV = CN[C@H](C(=O)O)C(C)C; NMeAbu = CC[C@H](NC)C(=O)O; NMeA = CN[C@@H](C)C(=O)O; Piperidide = C1CCN(*)CC1; dNMeA = CN[C@H](C)C(=O)O; CH2CMe2OH = CC(C)(O)C*; CH2CONHMe = CNC(=O)C*; NBuGly = CCCCNCC(=O)O; NPrGly = CCCNCC(=O)O; Propyl(3-OH) = OCCC*; Ethyl(2-OH) = OCC*; Sar = CNCC(=O)O; tBu = CC(C)(C)*

Assay: in vitro
Conditions: human, Caco-2, Caco-2

| SMILES | Papp [×10⁻⁶ cm/s] |
| --- | --- |
| CCCCN1CC(=O)N(C)[C@@H](CC(C)C)C(=O)N[C@H](C(=O)N2CCCCC2)CC(=O)N(C)[C@@H](CC(C)C)C(=O)N[C@@H](CC(C)C)C(=O)N(C)[C@@H](CC)C(=O)N(C)[C@@H](Cc2ccccc2)C(=O)NC(CCC(=O)NS(C)(=O)=O)C(=O)N(C)[C@@H](Cc2cccc(Cl)c2)C(=O)N(C)[C@@H](CC(C)C)C(=O)N[C@@H]([C@@H](C)O)C1=O (stereo partly drawn) [pd64] ([NMeL]L[NMeAbu][NMeF][ξGln(SO2Me)][NMePhe(3-Cl)][NMeL]T[NBuGly][NMeL]D-Piperidide; lactam N-11) | 0.15 |
| CCCCN1CC(=O)N(C)[C@@H](Cc2ccccc2)C(=O)NC(CCC(=O)NS(C)(=O)=O)C(=O)N(C)[C@@H](CC(C)C)C(=O)N[C@@H](CC(C)C)C(=O)N(C)CC(=O)N(C)[C@@H](Cc2ccccc2)C(=O)N(C)[C@@H](CC(C)C)C(=O)N[C@@H](CC(C)C)C(=O)N(C)[C@@H](CC(C)C)C(=O)N[C@H](C(=O)N2CCCCC2)CC1=O (stereo partly drawn) [pd70] ([NBuGly][NMeF][ξGln(SO2Me)][NMeL]L[Sar][NMeF][NMeL]L[NMeL]D-Piperidide; lactam N-11) | 0.17 |
| CCCCN1CC(=O)N(C)[C@@H](CC(C)C)C(=O)N[C@@H](COC(C)(C)C)C(=O)N(C)[C@@H](Cc2ccccc2)C(=O)N(C)[C@@H](C(C)C)C(=O)N[C@H](C(=O)N2CCCCC2)CC(=O)N[C@H](CC(C)C)C(=O)N(C)[C@@H](Cc2ccccc2)C(=O)N[C@@H](CC(C)C)C(=O)N(C)[C@@H](CCN2CCOCC2)C(=O)N[C@@H]([C@@H](C)O)C1=O [pd452] ([dL][NMeF]L[NMeAbu(4-morpholino)]T[NBuGly][NMeL]S(tBu)[NMeF][NMeV]D-Piperidide; lactam N-11) | 1.3 |

Same assay, conditions: human, Caco-2, Caco-2 (cm/sec)

| SMILES | Papp [×10⁻⁶ cm/s] |
| --- | --- |
| CCCCN1CC(=O)N(C)[C@@H](Cc2ccccc2)C(=O)N(C)[C@@H](CC(C)C)C(=O)N[C@@H](COC(C)(C)C)C(=O)N(C)[C@@H](CC(C)C)C(=O)N[C@H](C(=O)N2CCCCC2)CC(=O)N(C)CC(=O)N(C)[C@@H](CCc2ccc(C(=O)NC)c(OC)c2)C(=O)N[C@@H](C(C)C)C(=O)N(C)[C@@H](CC(C)C)C(=O)N[C@@H]([C@@H](C)O)C1=O [AP231] ([Sar][NMeHph(3-OMe-4-CONHMe)]V[NMeL]T[NBuGly][NMeF][NMeL]S(tBu)[NMeL]D-Piperidide; lactam N-11) | 1 |
| CCCCN1CC(=O)N(C)[C@@H](CC(C)C)C(=O)N[C@@H](Cc2ccc(C(=O)NO)c(OC)c2)C(=O)N(C)[C@@H](CC(C)C)C(=O)N(C)[C@@H](CC(C)C)C(=O)N[C@H](C(=O)N2CCCCC2)CC(=O)N[C@H](CC(C)C)C(=O)N(C)[C@@H](Cc2ccccc2)C(=O)N[C@@H](C(C)C)C(=O)N(C)[C@@H](CC(C)C)C(=O)N[C@@H]([C@@H](C)O)C1=O [AP257] ([dL][NMeF]V[NMeL]T[NBuGly][NMeL][X1][NMeL][NMeL]D-Piperidide; lactam N-11) | 0.03 |
| CC[C@H](C)[C@@H]1NC(=O)[C@H](CC(C)C)N(C)C(=O)CCCN(C)C(=O)C[C@@H](C(=O)N2CCCCC2)NC(=O)[C@H](CC(C)C)N(C)C(=O)[C@H](CC(C)C)N(C)C(=O)[C@H]([C@@H](C)O)NC(=O)[C@H](CC(C)C)N(C)C(=O)[C@H](COCCO)NC(=O)[C@H](CCc2ccccc2)N(C)C(=O)[C@H](CCc2ccccc2)N(C)C1=O [Compound A04] ([NMeGABA][NMeL]I[NMehPhe][NMehPhe]S(Ethyl(2-OH))[NMeL]T[NMeL][NMeL]D-Piperidide; lactam N-11) | 0.41 |
| CC[C@H]1C(=O)N[C@@H](Cc2ccc(O)cc2)C(=O)N(C)[C@@H](CC(C)C)C(=O)N(C)[C@@H](CC(C)C)C(=O)N[C@@H](C(C)C)C(=O)N(C)[C@@H](Cc2ccccc2)C(=O)N(C)[C@@H](CC(C)C)C(=O)N[C@@H]([C@@H](C)O)C(=O)N(C)CC(=O)N(C)[C@@H](CC(C)C)C(=O)N[C@H](C(=O)N2CCCCC2)CC(=O)N1C [Compound F06] ([NMeAbu]Y[NMeL][NMeL]V[NMeF][NMeL]T[Sar][NMeL]D-Piperidide; lactam N-11) | 0.23 |
| CCCCN1CC(=O)N(C)[C@@H](Cc2ccccc2)C(=O)N[C@@H]([C@@H](C)CC)C(=O)N(C)[C@@H](CC(C)C)C(=O)N[C@@H](C(C)O)C(=O)N(CCC)CC(=O)N(C)[C@@H](Cc2ccccc2)C(=O)N(C)[C@@H](CC(C)C)C(=O)N[C@@H](COCCO)CC(=O)N(C)[C@@H](CC(C)C)C(=O)N[C@H](C(=O)N2CCCCC2)CC1=O (stereo partly drawn) [AP26] ([NBuGly][NMeF]I[NMeL][Thr(3ξ)][NPrGly][NMeF][NMeL][X7][NMeL]D-Piperidide; lactam N-11) | 0.37 |
| CC(C)C[C@H]1C(=O)N(C)[C@@H](Cc2c[nH]c3ccccc23)C(=O)N(C)[C@@H](Cc2ccccc2)C(=O)N[C@@H]([C@@H](C)O)C(=O)N(C)[C@@H](C)C(=O)N(C)[C@@H](CC(C)C)C(=O)N[C@H](C(=O)N2CCCCC2)CC(=O)N(C)[C@@H](C)C(=O)N(C)[C@@H](CC(C)C)C(=O)N(C)[C@@H](CC(C)C)C(=O)N[C@@H](C(C)C)C(=O)N1C [pd109] ([NMeA][NMeL][NMeL]V[NMeL][NMeW][NMeF]T[NMeA][NMeL]D-Piperidide; lactam N-11) | 0.0092 |
| CC(C)C[C@@H]1NC(=O)[C@H](Cc2ccccc2)N(C)C(=O)[C@@H](C(C)C)NC(=O)C[C@@H](C(=O)N2CCCCC2)NC(=O)[C@H](CC(C)C)N(C)C(=O)[C@H](Cc2cccc(Cl)c2)N(C)C(=O)[C@H](COCC(C)(C)O)NC(=O)[C@H](CC(C)C)N(C)C(=O)CN(C)C(=O)[C@H]([C@@H](C)O)NC(=O)[C@H](CC(C)C)N(C)C1=O [AP02] ([dV][NMeF]L[NMeL]T[Sar][NMeL]S(CH2CMe2OH)[NMePhe(3-Cl)][NMeL]D-Piperidide; lactam N-11) | 1.3 |
| CC[C@H](C)[C@@H]1NC(=O)[C@H](CC(C)C)N(C)C(=O)[C@H](COC[C@@H](C)O)NC(=O)[C@H](Cc2ccccc2)N(C)C(=O)CN(C)C(=O)C[C@@H](C(=O)N2CCCCC2)NC(=O)[C@H](CC(C)C)N(C)C(=O)[C@H](COC(C)(C)C)NC(=O)[C@H](CC(C)C)N(C)C(=O)[C@H](Cc2ccccc2)N(C)C(=O)CN(C)C1=O [AP88] ([Sar][NMeF]S(Propyl(2R-OH))[NMeL]I[Sar][NMeF][NMeL]S(tBu)[NMeL]D-Piperidide; lactam N-11) | 3.3 |
| CCCCN1CC(=O)N(C)[C@@H](CC(C)C)C(=O)N[C@H](C(=O)N2CCCCC2)CC(=O)N(C)[C@@H](C(C)C)C(=O)N[C@@H](COCCCO)C(=O)N(C)[C@@H](CC(C)C)C(=O)N(C)[C@@H](Cc2ccccc2)C(=O)C[C@@H](C(C)C)C(=O)N(C)[C@@H](Cc2ccccc2)C(=O)N(C)[C@@H](CC(C)C)C(=O)N[C@@H]([C@@H](C)O)C1=O [AP93] ([NMeV]S(Propyl(3-OH))[NMeL][X14][NMeF][NMeL]T[NBuGly][NMeL]D-Piperidide; lactam N-10) | 1.1 |
| CC(C)C[C@@H]1NC(=O)[C@H](Cc2cccc(Cl)c2)N(C)C(=O)[C@H](CC(C)C)N(C)C(=O)[C@H](COCCO)NC(=O)[C@H](C(C)C)N(C)C(=O)C[C@@H](C(=O)N2CCCCC2)NC(=O)[C@H](CC(C)C)N(C)C(=O)CN(C)C(=O)[C@H]([C@@H](C)O)NC(=O)[C@H](CC(C)C)N(C)C(=O)[C@H](CCc2ccccc2)N(C)C1=O [Compound A09] ([NMeV]S(Ethyl(2-OH))[NMeL][NMePhe(3-Cl)]L[NMehPhe][NMeL]T[Sar][NMeL]D-Piperidide; lactam N-11) | 0.72 |
| CNC(=O)c1ccc(CC[C@@H]2NC(=O)[C@H](CC(C)C)N(C)C(=O)[C@H]([C@@H](C)O)NC(=O)[C@H](CC(C)C)N(C)C(=O)[C@H](CC(C)C)N(C)C(=O)[C@@H](C)N(C)C(=O)C[C@@H](C(=O)N3CCCCC3)NC(=O)[C@H](CC(C)C)N(C)C2=O)cc1OC [AP262] ([dNMeA][NMeL][NMeL]T[NMeL][hPhe(3-OMe,4-CONHMe)][NMeL]D-Piperidide; lactam N-8) | 0.17 |
| CC[C@H](C)[C@H]1C(=O)N[C@@H]([C@@H](C)O)C(=O)N(C)CC(=O)N(C)[C@@H](CC(C)C)C(=O)N[C@H](C(=O)N2CCCCC2)CC(=O)N(C)[C@@H](CC(C)C)C(=O)N[C@@H](CC(C)C)C(=O)N(C)[C@@H](CC(C)C)C(=O)N(C)[C@@H](Cc2c[nH]c3ccccc23)C(=O)N[C@@H](CC(C)C)C(=O)N(C)[C@@H](Cc2ccccc2)C(=O)N1C [pd111] ([NMeL]L[NMeL][NMeW]L[NMeF][NMeI]T[Sar][NMeL]D-Piperidide; lactam N-11) | 0.16 |

Same assay, conditions: human, Caco-2, Caco-2 (cm/sec) Papp

| SMILES | Papp [×10⁻⁶ cm/s] |
| --- | --- |
| CC(C)C[C@@H]1NC(=O)[C@H](Cc2ccccc2)N(C)C(=O)[C@H](C(C)C)N(C)C(=O)C[C@@H](C(=O)N2CCCCC2)NC(=O)[C@H]([C@@H](C)O)NC(=O)[C@H](Cc2ccccc2)N(C)C(=O)[C@H](Cc2ccccc2)NC(=O)[C@H](Cc2ccccc2)N(C)C(=O)CN(C)C(=O)[C@H](C)N(C)C(=O)[C@H](CC(C)C)N(C)C1=O [pd229] ([NMeV][NMeF]L[NMeL][NMeA][Sar][NMeF]F[NMeF]TD-Piperidide; lactam N-11) | 0.41 |

Same assay, conditions: human, Caco-2, Caco-2 (membrane permeability)

| SMILES | Papp [×10⁻⁶ cm/s] |
| --- | --- |
| CC[C@H](C)[C@@H]1NC(=O)[C@H](CC(C)C)N(C)C(=O)CCCN(C)C(=O)C[C@@H](C(=O)N2CCCCC2)NC(=O)[C@H](CC(C)C)N(C)C(=O)[C@H](CC(C)C)N(C)C(=O)[C@H]([C@@H](C)O)NC(=O)[C@H](CC(C)C)N(C)C(=O)[C@H](COCC(O)C(F)(F)F)NC(=O)[C@H](Cc2ccccc2)N(C)C(=O)[C@H](Cc2ccccc2)N(C)C1=O (stereo partly drawn) [Compound C03] ([NMeGABA][NMeL]I[NMeF][NMeF]S(CH2CH(OH)CF3)[NMeL]T[NMeL][NMeL]D-Piperidide; lactam N-11) | 0.5 |
| CCCCN1CC(=O)N(C)[C@@H](Cc2ccccc2)C(=O)N[C@@H](COCC(=O)NC)C(=O)N(C)[C@@H](CC(C)C)C(=O)N[C@@H]([C@@H](C)O)C(=O)N(CCC)CC(=O)N(C)[C@@H](Cc2ccccc2)C(=O)N(C)[C@@H](CC(C)C)C(=O)N[C@@H](CC(C)C)C(=O)N(C)[C@@H](CC(C)C)C(=O)N[C@H](C(=O)N2CCCCC2)CC1=O [Compound I05] ([NBuGly][NMeF]S(CH2CONHMe)[NMeL]T[NPrGly][NMeF][NMeL]L[NMeL]D-Piperidide; lactam N-11) | 0.8 |
